Article PMC4949581 (ACS Chemical Biology, 2016)
Blank lines part the entries; values can stand above or below the compound they belong to.

Columns and labels:
Format in all cases: biochemical
TxGH116 β-glucosidase [1] = target: T1, TxGH116 β-glucosidase (Thermoanaerobacterium xylanolyticum, UniProt F6BL85); assay: crystal structure
T1 sequence (F6BL85 19-806): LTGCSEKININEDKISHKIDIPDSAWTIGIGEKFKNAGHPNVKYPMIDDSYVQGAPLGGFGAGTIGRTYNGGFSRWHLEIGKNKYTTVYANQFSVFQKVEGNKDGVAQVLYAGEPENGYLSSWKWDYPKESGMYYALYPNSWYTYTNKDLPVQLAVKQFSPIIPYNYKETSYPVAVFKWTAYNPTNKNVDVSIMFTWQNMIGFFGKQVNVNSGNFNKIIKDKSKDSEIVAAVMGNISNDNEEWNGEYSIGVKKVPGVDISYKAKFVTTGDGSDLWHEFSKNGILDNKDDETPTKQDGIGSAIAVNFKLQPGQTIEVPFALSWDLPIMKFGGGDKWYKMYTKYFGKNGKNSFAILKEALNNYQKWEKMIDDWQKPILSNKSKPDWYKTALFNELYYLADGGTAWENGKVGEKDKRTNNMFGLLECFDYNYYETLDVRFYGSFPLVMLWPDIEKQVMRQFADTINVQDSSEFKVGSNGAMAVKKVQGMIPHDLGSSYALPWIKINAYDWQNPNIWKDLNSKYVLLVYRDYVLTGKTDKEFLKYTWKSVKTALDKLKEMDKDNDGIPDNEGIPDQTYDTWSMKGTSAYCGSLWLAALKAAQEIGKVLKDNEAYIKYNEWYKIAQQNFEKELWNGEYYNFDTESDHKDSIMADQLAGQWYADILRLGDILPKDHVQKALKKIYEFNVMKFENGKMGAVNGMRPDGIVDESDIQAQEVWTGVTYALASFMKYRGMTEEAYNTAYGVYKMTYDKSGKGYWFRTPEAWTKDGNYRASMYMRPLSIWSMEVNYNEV

TxGH116 β-glucosidase [2] = target: T1, TxGH116 β-glucosidase; assay: inhibition of 4NPGlc hydrolysis, Lineweaver–Burk
TxGH116 β-glucosidase [3] = target: T1, TxGH116 β-glucosidase; assay: inactivation of the purified enzyme
TxGH116 β-glucosidase [4] = target: T1, TxGH116 β-glucosidase; assay: crystal structure; remark: listed apart in the source

Ki (TxGH116 β-glucosidase [1]): 0.13 ± 0.01 µM
SMILES: OC[C@H]1NC[C@H](O)[C@@H](O)[C@@H]1O [DNJ, deoxynojirimycin]

Ki (TxGH116 β-glucosidase [2]): 0.0029 ± 0.0001 µM
SMILES: OC[C@H]1CNC[C@@H](O)[C@@H]1O [IFG, isofagomine]

SMILES: OC[C@@H]1[C@@H](O)[C@H](O)[C@@H](O)[C@@H]2O[C@H]12 [cyclophellitol]
inactivation of the purified enzyme (TxGH116 β-glucosidase [3]): cyclophellitol, a related epoxide that contains a hydroxymethyl group corresponding to the hydroxymethyl group of glucose, rapidly inactivated TxGH116

Ki (TxGH116 β-glucosidase [4]): 4000 ± 300 µM
SMILES: OC[C@H]1O[C@@H](O)[C@H](O)[C@@H](O)[C@@H]1O [Glc, D-glucose]
